Ends that are not written are not given here.
How the values were obtained:
[1] = system: methicillin-resistant coagulase-negative Staphylococcus (MRCNS) P1369; experiment: microbe, parasite or virus in culture; assay type: cell-based; settings: P1369, methicillin resistant (MRCNS) clinical isolate; repeated at least three times
Protocol: (§1) The MIC was determined via a microdilution assay in 96-well microtiter plates according to the broth microdilution guideline of Clinical and Laboratory Standards Institute (CLSI).

[2] = system: P. aeruginosa A093115; experiment: MIC, broth microdilution (CLSI); assay type: cell-based, Pseudomonas aeruginosa; settings: P. aeruginosa A093115, clinical isolate
Protocol: (§2) Clinical isolated Pseudomonas aeruginosa strains A092994, A093052, A093056, A093085 and A093115 were obtained from Hubei Maternal and Child Health Hospital.
as §1

[3] = system: P. aeruginosa A093052; experiment: MIC, broth microdilution (CLSI); assay type: cell-based, Pseudomonas aeruginosa; settings: P. aeruginosa A093052, clinical isolate
Protocol: as §2, §1

[4] = system: P. aeruginosa A092994; experiment: MIC, broth microdilution (CLSI); assay type: cell-based, Pseudomonas aeruginosa; settings: P. aeruginosa A092994, clinical isolate
Protocol: as §2, §1

[5] = system: P. aeruginosa A093085; experiment: MIC, broth microdilution (CLSI); assay type: cell-based, Pseudomonas aeruginosa; settings: P. aeruginosa A093085, clinical isolate
Protocol: as §2, §1

[6] = system: P. aeruginosa A093056; experiment: MIC, broth microdilution (CLSI); assay type: cell-based, Pseudomonas aeruginosa; settings: P. aeruginosa A093056, clinical isolate
Protocol: as §2, §1

[7] = system: M. luteus AB93113; experiment: MIC, broth microdilution (CLSI); assay type: cell-based, Micrococcus luteus; settings: M. luteus AB93113, Gram-positive, 96-well
Protocol: (§3) S. aureus AB94004, S. aureus ATCC 25923, E. coli AB94012, E. coli ATCC 25922, Pseudomonas aeruginosa AB93066, Bacillus thuringiensis AB92037, Bacillus subtilis AB91021, and Micrococcus luteus AB93113 were purchased from the China Center of Type Culture Collection (CCTCC).
as §1

[8] = system: B. subtilis AB91021; experiment: MIC, broth microdilution (CLSI); assay type: cell-based, Bacillus subtilis; settings: B. subtilis AB91021, Gram-positive, 96-well
Protocol: as §3, §1

[9] = system: P. aeruginosa AB93066; experiment: MIC, broth microdilution (CLSI); assay type: cell-based, Pseudomonas aeruginosa; settings: P. aeruginosa AB93066, Gram-negative, 96-well
Protocol: as §3, §1

[10] = Biolayer interferometry; assay type: binding, E. coli; settings: 10 µg/mL biotinylated peptide on biosensor tips, 500 µg/mL LPS, 10 mM HEPES pH 7.4, 0.14 M NaCl, 30°C
Protocol: Figure 7 Binding assay of Kn2-7 and LTA or LPS. (A) Interaction of 10 µg/ml of Kn2-7 with 500 µg/ml of LPS or 500 µg/mL of LTA. Curve A3 is LPS, curve B3 is LTA and curve C3 is buffer. (B) Interaction of 10 µg/mL of BmKn2 with 500 µg/mL of LPS or 500 µg/mL of LTA. Curve D3 is LPS, curve E3 is LTA and curve F3 is the buffer. (C) MICs of Kn2-7 and BmKn2 treated with LTA or LPS against S. aureus and E. coli.
Biolayer Interferometry (BLI) experiments were performed on OCT RED (FortéBio, Inc.). A total of 500 µg/mL of lipoteichoic acid from S. aureus (LTA, Sigma, L2515), lipopolysaccharides from E. coli (LPS, Sigma, L2880) or buffer (10 mM HEPES, pH 7.4 and 0.14 M NaCl) was dispensed into 96-well microtiter plates at a volume of 200 µl per well. The operating temperature was 30°C. Biosensor tips (FortéBio, Inc., Menlo Park, CA) were pre-wetted with the buffer for 60 seconds at baseline. Then, 10 µg/mL Biotin-Kn2-7 or Biotin-BmKn2 was loaded onto the biosensor tips for 900 seconds. Baseline 2 was subsequently established for 300 seconds. Dissociation of Kn2-7 or BmKn2 occurred for 900 seconds in the buffer. Data were generated automatically by the Octet® User Software (version 3.1) and were subsequently analyzed from the resultant text files using Excel 2000.

[11] = system: S. aureus AB94004; experiment: Bactericidal assay (time-killing); assay type: cell-based; settings: samples at 0, 5, 15, 30, 60 min, colony counts, average of three dishes
Protocol: Figure 5 Bactericidal assays of the Kn2-7 and BmKn2 peptides against S. aureus and E. coli AB94012. Set point indicates untreated bacteria, and 0 minutes was defined as the time of the first sample collection, which was immediately after mixing bacteria and Kn2-7 or BmKn2. The other samples were collected at 5 min, 15 min, 30 min or 60 min. All of the counts were the average of three dishes, and the experiment was repeated at least three times. (A) Time-killing curve of Kn2-7 against S. aureus AB94004. (B) Time-killing curve of BmKn2 against S. aureus AB94004. (C) Time-killing curve of Kn2-7 against E. coli AB94012.
Bactericidal curves for Kn2-7 and BmKn2 were determined against S. aureus AB94004 and E. coli AB94012. A 400 µl aliquot of the peptide solution was added to 1,600 µl of a bacterial suspension. At each time point, 200 µl of the treated bacterial suspension was transferred to a sterilized 1.5-ml tube. After centrifugation at 1,000×g for 5 min, the supernatant was removed, and the pellet was resuspended in 200 µl of LB medium. The bacterial suspensions were placed on agar plates and incubated at 37°C until viable colonies could be counted.

**Q.** For FIGAIARLLSKIF-NH2 [BmKn2], which MIC [1] is on record?
**A.** Its MIC is 12.5 µg/mL.

**Q.** What about the MIC [2] of the same substance?
**A.** Its MIC is over 100 µg/mL.

**Q.** And the MIC [3]?
**A.** The MIC was over 100 µg/mL.

**Q.** What about the MIC [4] of the same substance?
**A.** Its MIC is over 100 µg/mL.

**Q.** And the MIC [5]?
**A.** The MIC was over 100 µg/mL.

**Q.** And the MIC [6]?
**A.** Its MIC is over 100 µg/mL.

**Q.** And the MIC [7]?
**A.** Its MIC is 6.25 µg/mL.

**Q.** What about the MIC [8] of the same substance?
**A.** The MIC was 12.5 µg/mL.

**Q.** And the MIC [9]?
**A.** The MIC was 50 µg/mL.

**Q.** Which “Binding to LPS (BLI)” value [10] does the source give for FIKRIARLLRKIF [Kn2-7] here?
**A.** The value was “able to bind to LPS”.

**Q.** And the “Bactericidal effect (time-killing curve)” value [11]?
**A.** The value was “bactericidal effects”.
